From ChEMBL document CHEMBL1201862, “PubChem BioAssay data set” (2004) come the findings set out here.

Some test systems named below: XF498; DLD-1; SF-539; SW-620; SNB-78; KM-20L2; LOX IMVI; A498; M14; UACC-62; DMS-273; NCI-H226; DMS-114; NCI/ADR-RES; MCF7; MDA-N; Hs-578T; MDA-MB-231; BT-549; PC-3.
Test in all cases: NCI-60 cell line screen, 48 h

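The compound was tested at five concentrations on cells cultured in 96-well plates, with a 48-hour exposure period. GI50: concentration for 50% inhibition of growth.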 Active and inactive are the calls of the source. Rule as the data show it: active = GI50 up to about 1.1 µM and inactive = higher.

Turning to `CC(C)(C)[Si](OC1CCOC1=O)(c1ccccc1)c1ccccc1` (stereo not given), the GI50 in the assay on XF498 was 11.1 µM (inactive); with DLD-1 it was 22.2 µM (inactive); in the assay on SF-539, 23.4 µM (inactive); in the assay with SW-620, 26.5 µM (inactive); with SNB-78 it was 32.2 µM (inactive); in the assay with KM-20L2 it was 14.5 µM (inactive). For the same molecule, the GI50 with LOX IMVI was 15.5 µM (inactive); in the assay on A498, 25.3 µM (inactive); with M14, 18 µM (inactive); in the assay with UACC-62 it was 13.9 µM (inactive).

For the molecule `NC(=S)N/N=C1\CC(c2ccccc2)Nc2ccccc21` (stereo not given), the GI50 with DMS-273 is 32.3 µM (inactive); in the assay on XF498, 6.76 µM (inactive); in the assay with DLD-1, 35.2 µM (inactive); with SF-539, 41.7 µM (inactive); in the assay with SW-620 it was 30.7 µM (inactive); in the assay with SNB-78 it was 68.9 µM (inactive). Besides, the GI50 in the assay with KM-20L2 was 18.5 µM (inactive); in the assay on LOX IMVI, 34.2 µM (inactive); with A498, 18.5 µM (inactive); with NCI-H226, 39 µM (inactive); with M14, 42.1 µM (inactive); in the assay on UACC-62, 34.3 µM (inactive). Further, the GI50 in the assay with DMS-114 is 23.4 µM (inactive).

On to `O=NN(CCCl)C(=O)N[C@H]1CC[C@H](C(=O)O)CC1`, for which the GI50 in the assay with DMS-273 was > 100 µM (inactive); in the assay with XF498, > 100 µM (inactive); in the assay on NCI/ADR-RES, > 100 µM (inactive); in the assay on DLD-1, > 100 µM (inactive); in the assay with SF-539, 36.1 µM (inactive); in the assay on SW-620 it was > 61.1 µM (inactive). The GI50 is > 100 µM (inactive) with SNB-78; > 100 µM (inactive) in the assay on MCF7; > 100 µM (inactive) in the assay on KM-20L2; > 72.6 µM (inactive) in the assay on LOX IMVI; > 100 µM (inactive) with A498; > 100 µM (inactive) with NCI-H226. Besides, the GI50 in the assay on UACC-62 is 20.2 µM (inactive); in the assay on DMS-114, 22.8 µM (inactive).

As to `C=C1CC(OC)(C(O)C(=O)N[C@H]2OCO[C@H]3C2O[C@H](C[C@@H](COC)OC)C(C)(C)C3OC)O[C@H](C)[C@@H]1C` (stereo not given in full), the GI50 in the assay on DMS-273, in the assay with XF498, with NCI/ADR-RES, in the assay on DLD-1, in the assay on SF-539 and with SW-620 was < 0.00482 µM (active) in each case. In addition, the GI50 with SNB-78, in the assay with MCF7, in the assay with KM-20L2, in the assay with LOX IMVI, in the assay with A498 and in the assay on NCI-H226 was < 0.00482 µM (active) each time. For the same molecule, the GI50 with UACC-62 and with DMS-114 was < 0.00482 µM (active) each time.

Turning to `COc1cccc(CC(C)N)c1` (stereo not given), the GI50 in the assay with DMS-273, in the assay on DLD-1, with SF-539, in the assay with SW-620, with SNB-78 and in the assay with KM-20L2 was > 100 µM (inactive) in each case. In addition, the GI50 in the assay on LOX IMVI, in the assay with A498, in the assay with NCI-H226, in the assay on M14, in the assay on UACC-62 and in the assay with DMS-114 was > 100 µM (inactive) in each case.

Regarding `NS(=O)(=O)c1cc2c(cc1Cl)NC(C(=O)NNC(=O)c1ccncc1)=NS2(=O)=O`, the GI50 in the assay with DMS-273, in the assay on XF498, in the assay on DLD-1, in the assay on SF-539, with SW-620 and with KM-20L2 was > 100 µM (inactive) throughout. Besides, the GI50 with LOX IMVI, in the assay on NCI-H226, in the assay with M14, in the assay on UACC-62 and in the assay on DMS-114 was > 100 µM (inactive) each time.

Regarding `CC[C@@H]1C[C@@H]2CN3CCc4c([nH]c5ccc(OC)cc45)C(COC(=O)c4ccc(OC)c(OC)c4)(C2)C13`, the GI50 in the assay on XF498 was 17.3 µM (inactive); in the assay with SF-539, 18.8 µM (inactive); in the assay on SW-620, 14.6 µM (inactive); in the assay on SNB-78, 19.6 µM (inactive); in the assay with KM-20L2 it was 15.6 µM (inactive); with LOX IMVI, 12.7 µM (inactive). The GI50 was 21 µM (inactive) in the assay with A498; 10.4 µM (inactive) in the assay on NCI-H226; 14.9 µM (inactive) in the assay on M14; 13.7 µM (inactive) in the assay on UACC-62; 11.6 µM (inactive) in the assay on DMS-114.

For `C=C1C(=O)C[C@@]23CCC[C@@]12CC(OCOC)C3` (stereo not given in full), the GI50 in the assay on DMS-273 was 2.4 µM (inactive); in the assay with XF498, 3.12 µM (inactive); with NCI/ADR-RES, 2.11 µM (inactive); in the assay on DLD-1, 1.84 µM (inactive); in the assay with SF-539, 3.24 µM (inactive); in the assay on SW-620 it was 2.07 µM (inactive). The GI50 in the assay with SNB-78 was 4.8 µM (inactive); in the assay on MCF7, 1.83 µM (inactive); in the assay with KM-20L2 it was 2.83 µM (inactive); in the assay on LOX IMVI, 1.61 µM (inactive); in the assay on A498 it was 4.69 µM (inactive); with NCI-H226, 2 µM (inactive). The GI50 with UACC-62 is 2.61 µM (inactive); with DMS-114, 1.91 µM (inactive).

For `COC(=O)C(=O)C(C(C)=O)C(=O)C(=O)Nc1ccc(C)cc1C` (stereo not given), the GI50 in the assay with DMS-273, in the assay with XF498, with DLD-1, with SF-539, in the assay on SW-620 and in the assay with KM-20L2 was > 100 µM (inactive) throughout. The GI50 in the assay with LOX IMVI, with A498, in the assay with NCI-H226, in the assay with M14, with UACC-62 and in the assay on DMS-114 was > 100 µM (inactive) each time.

In the case of `c1cc2nnc1SCCCSc1ccc(nn1)SCCCS2`, the GI50 with NCI/ADR-RES is > 20.5 µM (inactive); in the assay on SF-539, 23.5 µM (inactive); in the assay with SW-620, > 53.3 µM (inactive); in the assay with MCF7, 32.4 µM (inactive); with MDA-N, > 29.9 µM (inactive); in the assay with LOX IMVI, > 21.9 µM (inactive). Further, the GI50 is 26.5 µM (inactive) with Hs-578T; 97.7 µM (inactive) with A498; 24.7 µM (inactive) with NCI-H226; 30 µM (inactive) in the assay on MDA-MB-231; > 25.9 µM (inactive) in the assay on M14; 19.9 µM (inactive) in the assay on BT-549. Also, the GI50 was 38.7 µM (inactive) in the assay with PC-3 and > 25.8 µM (inactive) in the assay with UACC-62.

Consider `COc1ccc(C2=NN(c3nsc4ccccc34)C(=O)CC2)cc1`, for which the GI50 is > 100 µM (inactive) in the assay on DMS-273; > 100 µM (inactive) in the assay on SF-539; > 100 µM (inactive) in the assay with SW-620; > 100 µM (inactive) with SNB-78; > 100 µM (inactive) with KM-20L2; 89.1 µM (inactive) in the assay with LOX IMVI. Further, the GI50 in the assay with M14 is > 100 µM (inactive); in the assay on UACC-62, > 100 µM (inactive); in the assay on DMS-114, 58.5 µM (inactive).

Turning to `CON(C)C(=O)C(Cc1ccccc1)NC(=O)OCc1ccccc1` (stereo not given), the GI50 in the assay with DMS-273 is > 100 µM (inactive); with XF498 it was 64.3 µM (inactive); with DLD-1 it was > 100 µM (inactive); with SF-539, > 100 µM (inactive); in the assay with SW-620, > 100 µM (inactive); in the assay on SNB-78 it was > 100 µM (inactive). The GI50 in the assay on KM-20L2 is > 100 µM (inactive); in the assay with A498, > 100 µM (inactive); in the assay with M14, > 100 µM (inactive); in the assay with UACC-62 it was > 100 µM (inactive); in the assay with DMS-114, 58.9 µM (inactive).

For the molecule `COc1ccc(C2CC(c3sc(Nc4ccc(C)cc4)nc3C)=NN2)cc1` (stereo not given), the GI50 in the assay with DMS-273 is 18.8 µM (inactive); with XF498, 21 µM (inactive); in the assay on NCI/ADR-RES, 17.4 µM (inactive); in the assay with DLD-1 it was 14 µM (inactive); in the assay with SF-539, 15.4 µM (inactive); in the assay on SW-620 it was 18.8 µM (inactive). Moreover, the GI50 is 22.1 µM (inactive) in the assay with SNB-78; 14 µM (inactive) in the assay with MCF7; 16.1 µM (inactive) in the assay on KM-20L2; 18.2 µM (inactive) in the assay with LOX IMVI; 15.4 µM (inactive) in the assay on A498; 16.6 µM (inactive) in the assay with NCI-H226. Moreover, the GI50 is 40 µM (inactive) in the assay with UACC-62 and 14.1 µM (inactive) in the assay with DMS-114.

For the molecule `NC(=O)c1csc(C2O[C@@H](COP(=O)(O)OP(=O)(O)OC[C@H]3OC(n4cnc5c(N)ncnc54)[C@H](O)[C@@H]3O)[C@H](O)[C@@H]2O)n1` (stereo not given in full), the GI50 with DMS-273 was 99.5 µM (inactive); with XF498, 33.2 µM (inactive); with DLD-1, 45.2 µM (inactive); in the assay with SF-539, 52 µM (inactive); with SW-620 it was > 100 µM (inactive); with SNB-78, > 100 µM (inactive). Further, the GI50 in the assay on KM-20L2 is > 100 µM (inactive); with LOX IMVI it was 54.5 µM (inactive); in the assay on A498 it was > 100 µM (inactive); in the assay with NCI-H226 it was > 100 µM (inactive); with M14, 37.8 µM (inactive); in the assay with UACC-62, 72.1 µM (inactive). Also, the GI50 with DMS-114 was > 100 µM (inactive).

Regarding `O=P(CCOc1ccccc1OCCP(=O)(c1ccccc1)c1ccc2c(c1)OCCOCCOCCOCCO2)(c1ccccc1)c1ccc2c(c1)OCCOCCOCCOCCO2` (stereo not given), the GI50 in the assay with DMS-273, in the assay with XF498, in the assay with DLD-1, with SF-539, in the assay with SW-620 and in the assay with SNB-78 was > 100 µM (inactive) throughout. For the same molecule, the GI50 in the assay on KM-20L2, in the assay on LOX IMVI, in the assay with A498, in the assay with NCI-H226, with M14 and in the assay on UACC-62 was > 100 µM (inactive) each time. The GI50 in the assay with DMS-114 was > 100 µM (inactive).
